# Assay results published in patent US11230541B2, “Heterocyclic compound” (Takeda Pharmaceutical Company Limited, priority 2017, dated 2022).
# Molecular target: T1, NMDA receptor composed of four subunits including 2 sets of heterodimers of NR1 and NR2B (Homo sapiens, UniProt Q13224)
# T1 construct: host or cells: HEK293 (tetracycline-induced expression)
# Assay: NR2B Ca2+ influx assay (FLIPR, Fluo-4) in HEK293 cells expressing human GRIN1 and GRIN2B
# Type: cell-based
# Conditions: 10 μM final compound concentration, glutamic acid/glycine-induced Ca2+ influx
# Source text: To confirm the “antagonistic action on an NMDA receptor containing the NR2B subunit” of the compound of the present invention, human embryonic kidney cell expressing the “NMDA receptor composed of four subunits including 2 sets of heterodimers of NR1 and NR2B”, specifically HEK293 cell expressing human glutamate ionotropic receptor NMDA type subunit 1 (GRIN1) and human glutamate ionotropic receptor NMDA type subunit 2B (GRIN2B), was used and the activation suppressive effect on the receptors was measured.
# As an index of the NMDA receptor activation, intracellular calcium ion (Ca^2+) influx caused by the binding of glycine and glutamic acid with NR1 and NR2B, respectively, was used. HEK293 cells were purchased from ChanTest. The cells were cultured in a DMEM/F-12 (COSMO BIO, 10-092-CM) medium added with 10% FBS′(fetal bovine serum, AusGene), 100 units/mL penicillin, 100 μg/mL streptomycin, 500 μg/mL neomycin, 100 μg/mL Zeocin, 5 μg/mL Blasticidin at 37° C., 5% CO2. The cells were detached from flask with trypsin the day before the assay, suspended in a seeding medium (DMEM (Invitrogen, 31053) added with 10% FBS, 100 units/mL penicillin, 100 μg/mL streptomycin) at 8×10^5 cells/mL, seeded by 25 μL per well in a 384-well plate (Falcon, 356663) at 20000 cells/well, and cultured overnight in an incubator. On the day of the assay, tetracycline (Wako Pure Chemical Industries, Ltd., 209-16561) was diluted with the seeding medium at 2 μg/mL, added at […] to the plate seeded with the cells, and cultured for 2 hr in an incubator. Thereafter, the medium was removed, and the cells were washed with 50 μL/well assay buffer (137 mM NaCl, 4 mM KCl, 1.8 mM CaCl2, 10 mM HEPES (pH 7.2), 10 mM Glucose, 0.1% BSA). Then, a loading buffer (assay buffer added with 2.5 uM Fluo-4AM, 2 mM Amaranth, 1 mM Tartrazine) was added at 25 μL/well, and loading was performed in the incubator for 30 min, and at room temperature for 15 min. A solution (25 μL) of the Example compound diluted with the above-mentioned assay buffer at 30 μM (final concentration 10 μM) was added, and the cells were stood for 15 min at room temperature. Using FLIPR (Molecular Devices), 25 μL of an assay buffer containing 30 μM glutamic acid, 30 μM glycine was added, and the fluorescence signal was measured every 3 seconds for 5 min. The inhibitory activity was calculated as a relative activity value (inhibitory rate) that inhibits 100% of the cumulative value of the fluorescence value of a well added with a buffer free of glutamic acid, glycine, relative to the cumulative value of the fluorescence value of each well.
# T1 sequence (Q13224 27-1484, other chains not shown): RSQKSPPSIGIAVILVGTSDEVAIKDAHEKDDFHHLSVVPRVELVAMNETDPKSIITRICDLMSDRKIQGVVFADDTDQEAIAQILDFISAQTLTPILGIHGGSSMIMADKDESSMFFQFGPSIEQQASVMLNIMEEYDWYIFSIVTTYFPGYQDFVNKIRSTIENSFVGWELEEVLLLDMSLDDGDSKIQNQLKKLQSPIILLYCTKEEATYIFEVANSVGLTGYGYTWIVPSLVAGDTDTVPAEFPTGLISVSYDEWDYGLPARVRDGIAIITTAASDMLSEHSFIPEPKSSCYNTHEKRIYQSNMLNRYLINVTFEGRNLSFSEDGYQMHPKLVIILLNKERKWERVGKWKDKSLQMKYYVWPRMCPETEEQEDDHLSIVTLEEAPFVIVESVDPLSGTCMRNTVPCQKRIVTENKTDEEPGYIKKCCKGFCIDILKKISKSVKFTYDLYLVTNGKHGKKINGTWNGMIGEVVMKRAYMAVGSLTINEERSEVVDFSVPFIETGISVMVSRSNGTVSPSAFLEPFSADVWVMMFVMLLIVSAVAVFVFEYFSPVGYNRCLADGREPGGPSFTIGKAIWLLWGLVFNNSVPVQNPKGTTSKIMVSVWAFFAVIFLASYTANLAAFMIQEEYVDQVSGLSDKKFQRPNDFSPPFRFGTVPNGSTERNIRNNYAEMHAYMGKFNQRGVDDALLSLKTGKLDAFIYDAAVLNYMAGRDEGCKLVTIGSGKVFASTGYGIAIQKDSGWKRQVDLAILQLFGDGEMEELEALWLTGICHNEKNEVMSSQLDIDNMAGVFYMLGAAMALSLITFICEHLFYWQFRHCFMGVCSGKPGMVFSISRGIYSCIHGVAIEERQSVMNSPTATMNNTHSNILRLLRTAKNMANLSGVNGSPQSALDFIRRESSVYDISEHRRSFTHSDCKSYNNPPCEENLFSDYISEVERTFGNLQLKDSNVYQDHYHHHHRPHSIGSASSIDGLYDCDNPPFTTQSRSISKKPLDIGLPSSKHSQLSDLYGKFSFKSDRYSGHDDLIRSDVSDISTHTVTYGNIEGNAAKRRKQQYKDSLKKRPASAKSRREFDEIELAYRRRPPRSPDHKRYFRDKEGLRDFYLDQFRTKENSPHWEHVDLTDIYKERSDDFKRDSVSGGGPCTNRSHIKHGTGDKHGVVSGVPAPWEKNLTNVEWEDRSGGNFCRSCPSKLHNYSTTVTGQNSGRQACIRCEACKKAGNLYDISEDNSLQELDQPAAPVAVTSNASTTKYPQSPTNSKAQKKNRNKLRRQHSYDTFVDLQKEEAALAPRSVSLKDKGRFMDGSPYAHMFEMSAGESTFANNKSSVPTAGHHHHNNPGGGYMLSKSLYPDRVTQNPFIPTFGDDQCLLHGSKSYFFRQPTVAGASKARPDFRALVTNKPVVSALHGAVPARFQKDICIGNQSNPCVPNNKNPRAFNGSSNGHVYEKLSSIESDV
row,inhibitory rate (10 μM compound concentration),SMILES
1,89,"COc1ccc2ncn(C)c2c1CNC(=O)c1ccc(C(F)(F)F)s1 [Example 50, N-((6-methoxy-1-methyl-1H-benzimidazol-7-yl)-methyl)-5-(trifluoro-methyl)thiophene-2-carboxainide]"

# Same assay, conditions: HEK293, 10 μM final compound concentration, glutamic acid/glycine-induced Ca2+ influx, read-out: inhibitory rate (10 μM compound concentration)
row,SMILES,inhibition at 10 µM [%]
1,"COc1ccc2ncn(C)c2c1CNC(=O)c1cc(F)c(F)c(F)c1 [Example 41, 3,4,5-trifluoro-N-((6-methoxy-1-methyl-1H-benzimidazol-7-yl)methyl)benzamide]",90
2,"COc1ccc2ncn(C)c2c1CNC(=O)c1cc(Cl)cs1 [Example 42, 4-chloro-N-((6-methoxy-1-methyl-1H-benzimidazol-7-yl)-methyl)thiophene-2-carboxamide]",87
3,"COc1ccc2ncn(C)c2c1CNC(=O)c1cc(C)cs1 [Example 43, N-((6-methoxy-1-methyl-1H-benzimidazol-7-yl)-methyl)-4-methylthiophene-2-carboxamide]",61
4,"COc1ccc2ncn(C)c2c1CNC(=O)c1cc(Cl)c(F)c(Cl)c1 [Example 49, 3,5-dichloro-4-fluoro-N-((6-methoxy-1-methyl-1H-benzimidazol-7-yl)methyl)benzamide]",69
5,"COc1ccc2ncn(C)c2c1CNC(=O)c1cc(Cl)c(Cl)s1 [Example 53, 4,5-dichloro-N-((6-methoxy-1-methyl-1H-benzimidazol-7-yl)-methyl)thiophene-2-carboxamide]",91
6,"COc1ccc2ncn(C)c2c1CNC(=O)c1ccc(OC(F)(F)F)nc1 [Example 56, ((6-methoxy-1-methyl-1H-benzimidazol-7-yl)methyl)-6-(trifluoro-methoxy)nicotinamide]",93
7,"CCOc1ncc(C(=O)NCc2c(OC)ccc3ncn(C)c23)cc1Cl [Example 58, 5-chloro-6-ethoxy-N-((6-methoxy-1-methyl-1H-benzimidazol-7-yl)methyl)nicotinamide]",93
8,"COc1ccc2ncn(C)c2c1CNC(=O)c1cnc(OC(F)F)c(F)c1 [Example 59, 6-(difluoromethoxy)-5-fluoro-N-((6-methoxy-1-methyl-1H-benzimidazol-7-yl)-methyl)nicotinamide]",94
9,"Cc1ccc2ncn(C)c2c1CNC(=O)c1ccc(OC(F)(F)F)c(Cl)c1 [Example 60, 3-chloro-N-((1,6-dimethyl-1H-benzimidazol-7-yl)-methyl)-4-(trifluoro-methoxy)benzamide]",94
10,"O=C(NCc1c(C2CC2)ccc2[nH]ncc12)c1ccc(C(F)(F)F)cc1 [Example 61, N-((5-cyclopropyl-1H-indazol-4-yl)methyl)-4-(trifluoromethyl)-benzamide]",94
11,"O=C(NCc1c(C2CC2)ccc2[nH]ncc12)c1ccc(OC(F)(F)F)cc1 [Example 62, N-((5-cyclopropyl-1H-indazol-4-yl)methyl)-4-(trifluoromethoxy)-benzamide]",94
12,"Cc1csc(C(=O)NCc2c(C3CC3)ccc3[nH]ncc23)c1 [Example 63, N-((5-cyclopropyl-1H-indazol-4-yl)methyl)-methylthiophene-2-carboxamide]",89
13,"Cc1ccc(C(=O)NCc2c(C3CC3)ccc3[nH]ncc23)s1 [Example 64, N-((5-cyclopropyl-1H-indazol-4-yl)methyl)-methylthiophene-2-carboxamide]",91
14,"O=C(Cc1cccs1)NCc1c(C2CC2)ccc2[nH]ncc12 [Example 65, N-((5-cyclopropyl-1H-indazol-4-yl)methyl)-2-(2-thienyl)acetamide]",90
15,"Cc1cc(C(=O)NCc2c(C3CC3)ccc3[nH]ncc23)cs1 [Example 66, N-((5-cyclopropyl-1H-indazol-4-yl)methyl)-methylthiophene-3-carboxamide]",91
16,"COc1ccc(C(=O)NCc2c(C3CC3)ccc3[nH]ncc23)s1 [Example 67, N-((5-cyclopropyl-1H-indazol-4-yl)methyl)-methoxythiophene-2-carboxamide]",92
17,"COc1csc(C(=O)NCc2c(C3CC3)ccc3[nH]ncc23)c1 [Example 68, N-((5-cyclopropyl-1H-indazol-4-yl)methyl)-methoxythiophene-2-carboxamide]",86
18,"O=C(NCc1c(C2CC2)ccc2[nH]ncc12)c1csc(Cl)c1 [Example 69, 5-chloro-N-((5-cyclopropyl-1H-indazol-4-yl)methyl)thiophene-3-carboxamide]",93
19,"O=C(NCc1c(C2CC2)ccc2[nH]ncc12)c1cc(Cl)cs1 [Example 70, 4-chloro-N-((5-cyclopropyl-1H-indazol-4-yl)methyl)thiophene-2-carboxamide]",92

# Next, values leading:
row,inhibition at 10 µM [%],SMILES
1,91,"COc1ccc2ncn(C)c2c1CNC(=O)c1ccc(F)c(Cl)c1 [Example 37, 3-chloro-4-fluoro-N-((6-methoxy-1-methyl-1H-benzimidazol-7-yl)methyl)benzamide]"
2,91,"COc1ccc2ncn(C)c2c1CNC(=O)c1ccc(C)c(Cl)c1 [Example 38, 3-chloro-N-((6-methoxy-1-methyl-1H-benzimidazol-7-yl)-methyl)-4-methylbenzamide]"
3,91,"COc1ccc2ncn(C)c2c1CNC(=O)c1ccc(Cl)c(C)c1 [Example 39, 4-chloro-N-((6-methoxy-1-methyl-1H-benzimidazol-7-yl)-methyl)-3-methyl-benzamide]"
4,89,"COc1ccc2ncn(C)c2c1CNC(=O)c1ccc(F)c(C(F)(F)F)c1 [Example 40, 4-fluoro-N-((6-methoxy-1-methyl-1H-benzimidazol-7-yl)methyl)-3-(trifluoro-methyl)benzamide]"
5,89,"COc1ccc2ncn(C)c2c1CNC(=O)c1ccc(Cl)c(F)c1 [Example 44, 4-chloro-3-fluoro-N-((6-methoxy-1-methyl-1H-benzimidazol-7-yl)methyl)benzamide]"
6,64,"COc1cc(C(=O)NCc2c(OC)ccc3ncn(C)c23)ccc1Cl [Example 45, 4-chloro-3-methoxy-N-((6-methoxy-1-methyl-1H-benzimidazol-7-yl)methyl)benzamide]"
7,68,"COc1cc(C(=O)NCc2c(OC)ccc3ncn(C)c23)ccc1F [Example 46, 4-fluoro-3-methoxy-N-((6-methoxy-1-methyl-1H-benzimidazol-7-yl)methyl)benzamide]"
8,85,"COc1ccc2ncn(C)c2c1CNC(=O)c1ccc(C)c(C(F)(F)F)c1 [Example 47, N-((6-methoxy-1-methyl-1H-benzimidazol-7-yl)-methyl)-4-methyl-3-(trifluoromethyl)benzamide]"
9,84,"COc1ccc(C(=O)NCc2c(OC)ccc3ncn(C)c23)s1 [Example 48, 5-methoxy-N-((6-methoxy-1-methyl-1H-benzimidazol-7-yl)methyl)thiophene-2-carboxamide]"
10,90,"COc1ccc2ncn(C)c2c1CNC(=O)c1ccc(C(F)(F)F)c(Cl)c1 [Example 51, 3-chloro-N-((6-methoxy-1-methyl-1H-benzimidazol-7-yl)-methyl)-4-(trifluoro-methyl)benzamide]"
11,91,"COc1ccc2ncn(C)c2c1CNC(=O)c1ccc(OC(F)(F)F)c(F)c1 [Example 52, 3-fluoro-N-((6-methoxy-1-methyl-1H-benzimidazol-7-yl)methyl)-4-(trifluoro-methoxy)benzamide]"
12,85,"COc1ccc2ncn(C)c2c1CNC(=O)c1cc(C)c(F)c(F)c1 [Example 54, 3,4-difluoro-N-((6-methoxy-1-methyl-1H-benzimidazol-7-yl)-methyl)-5-methyl-benzamide]"
13,90,"COc1ccc2ncn(C)c2c1CNC(=O)c1cc(F)c(Cl)c(Cl)c1 [Example 55, 3,4-dichloro-5-fluoro-N-((6-methoxy-1-methyl-1H-benzimidazol-7-yl)methyl)benzamide]"
14,91,"COc1ccc2ncn(C)c2c1CNC(=O)c1cnc(OC)c(Cl)c1 [Example 57, 5-chloro-6-methoxy-N-((6-methoxy-1-methyl-1H-benzimidazol-7-yl)methyl)nicotinamide]"
